Solubility data for 2 compounds are collected here from US20080262054A1, “Pharmaceutical Composition Containing Thiazolidinedione Compound” (priority 2005, published 2008).

Where a name gives a salt, the structure may show the parent alone.

Series [1] is described as follows: Dissolution Rate Test 1 of Compound A (Test Example 1). It counts as physicochemical. The following applies: JP first fluid, 37° C. The method, then:
About 40 mg of Compound A or a monohydrate of Compound A and a formulation excipient [one excipient is selected from the following excipients: 377.6 mg of lactose (Borculo Domo Ingredients), 78.0 mg of croscarmellose sodium (Ac-Di-Sol, FMC International), 15.6 mg of hydroxypropyl cellulose (HPC-L, Nippon Soda Co., Ltd.), 5.2 mg of magnesium stearate (NOF Corp.) and 0.112 mg of yellow ferric oxide (Kishi Kasei Co., Ltd.)] were added to 200 ml of Japanese Pharmacopoeia (JP) first fluid (7.0 ml of hydrochloric acid and water added to 2.0 g of sodium chloride followed by dissolving and bringing to a volume of 100 ml, normally used as a test liquid that imitates disintegration and elution of chemicals in the stomach) followed by stirring with a stirrer at 37° C. in a 300 ml conical beaker. 10 ml-samples were collected after 30 minutes, 1 hour, 3 hours and 6 hours followed by filtration using Acrodisk LC13 (PVDF, Gelman Science, Inc.). After discarding the first 3 ml, the next 7 ml were removed into a test tube. 5 ml of the sample in the test tube was taken with a whole pipette and transferred to a test tube containing 2 ml of methanol followed by mixing.
(§1) Quantification was carried out using HPLC, and solubility was determined from a calibration curve generated according to the method described below.
The calibration curve was generated by preparing methanol standard solutions of Compound A at concentrations of 400, 100 and 20 μg/ml, followed by the addition of 5 ml of JP first fluid to 2 ml of each standard solution, mixing and quantifying by HPLC.
Analytical column: L-column ODS (4.6 mm ID×15 cm, Chemicals Evaluation and Research Institute, Japan)
Mobile phase: 0.01 mol/1 mixture of acetate buffer (pH 5.0) and acetonitrile (13:7)
Column temperature: 40° C.
Detector: Ultraviolet absorption spectrophotometer (measuring wavelength: 290 nm)

The nature of series [2]: Dissolution Rate Test 2 of Compound A (Test Example 2). It counts as physicochemical. The settings on record: JP first fluid, 37° C., subsequently to 1 hour (3 hours, 6 hours); FIG. 2. The method, then:
Dissolution Rate Test 2 of 5-{4-[(6-methoxy-1-methyl-1H-benzimidazol-2-yl)methoxy]benzyl}thiazolidine-2,4-dione hydrochloride (Compound A) About 40 mg of Compound A or a monohydrate of Compound A and a formulation excipient [one excipient is selected from the following excipients: 23.9 mg of OPADRY II, 17.2 mg of polyvinyl alcohol (GOHSENOL GL-05, Nippon Synthetic Chemical Industry Co., Ltd.), and 23.9 mg of OPAGLOS 2] were added to 200 ml of Japanese Pharmacopoeia (JP) first fluid (7.0 ml of hydrochloric acid and water added to 2.0 g of sodium chloride followed by dissolving and bringing to a volume of 100 ml, normally used as a test liquid that imitates disintegration and elution of chemicals in the stomach) followed by stirring with a stirrer at 37° C. in a 300 ml conical beaker. 10 ml-samples were collected after 30 minutes, 1 hour, 3 hours and 6 hours followed by filtration using Acrodisk LC13 (PVDF, Gelman Science, Inc.). […]
as §1
The calibration curve was generated by preparing methanol standard solutions of Compound A at concentrations of 400, 100 and 20 μg/ml, followed by the addition of 5 ml of JP first fluid to 2 ml of each standard solution, mixing and quantifying by HPLC. […]

[3] abbreviates: stirring, samples after 30 minutes, 1 hour, 3 hours and 6 hours, HPLC, FIG. 1.

On to `COc1ccc2nc(COc3ccc(CC4SC(=O)NC4=O)cc3)n(C)c2c1` (stereo not shown) [Compound A, 5-{4-[(6-methoxy-1-methyl-1H-benzimidazol-2-yl)methoxy]benzyl}thiazolidine-2,4-dione hydrochloride], for which the solubility entry in series [1] (setting [3]) is listed as “decrease over time”; in series [1] (subsequently to 1 hour (3 hours, 6 hours)), “decreased rapidly”; in series [2], “decreased rapidly”.
Take `COc1ccc2nc(COc3ccc(CC4SC(=O)NC4=O)cc3)n(C)c2c1.Cl.O` (stereo not shown) [monohydrate, 5-{4-[(6-methoxy-1-methyl-1H-benzimidazol-2-yl)methoxy]benzyl}thiazolidine-2,4-dione hydrochloride (Compound A) monohydrate]: the solubility result in series [1] (setting [3]) is given as “extremely low”.
